The target in one assay is T1, human cathepsin L (Homo sapiens, UniProt P07711).
T1 construct: purchased CN Biosciences
Briefly: Cathepsin L peptidase activity assay (Ki). The settings on record: read-out: Ki, inhibitors of cathepsin L. Format: biochemical. The protocol: Unless otherwise stated, all general chemicals and biochemicals were purchased from either the Sigma Chemical Company, Poole, Dorset, U.K or from Fisher Scientific UK, Loughborough, Leicestershire, U.K. Absorbance assays were carried out in flat-bottomed 96-well plates (Spectra; Greiner Bio-One Ltd., Stonehouse, Gloucestershire, U.K.) using a SpectraMax PLUS384 plate reader (Molecular Devices, Crawley, U.K.). Fluorescence high throughput assays were carried out in either 384-well microtitre plates (Corning Costar 3705 plates, Fisher Scientific) or 96-well ‘U’ bottomed Microfluor W1 microtitre plates (Thermo Labsystems, Ashford, Middlesex, U.K.). Fluorescence assays were monitored using a SpectraMax Gemini fluorescence plate reader (Molecular Devices). For substrates employing either a 7-amino-4-methylcoumarin (AMC) or a 7-amino-4-trifluoromethylcoumarin (AFC) fluorophore, assays were monitored at an excitation wavelength of 365 nm and an emission wavelength of 450 nm and the fluorescence plate reader calibrated with AMC. For substrates employing a 3-amino-benzoyl (Abz) fluorophore, assays were monitored at an excitation wavelength of 310 nm and an emission wavelength of 445 nm; the fluorescence plate reader calibrated with 3-amino-benzamide (Fluka). Unless otherwise indicated, all the peptidase substrates were purchased from Bachem UK, St Helens, Merseyside, UK. Substrates utilizing fluorescence resonance energy transfer methodology (i.e. FRET-based substrates) were synthesized at Incenta Limited using published methods (Atherton & Sheppard, Solid Phase Peptide Synthesis, IRL Press, Oxford, U.K, 1989) and employed Abz (2-aminobenzoyl) as the fluorescence donor and 3-nitro-tyrosine [Tyr(NO2)] as the fluorescence quencher (Meldal, M. and Breddam, K., Anal. Biochem, 195, 141-147, 1991). Hydroxyethylpiperazine ethanesulfonate (HEPES), tris-hydroxylmethyl aminomethane (tris) base, bis-tris-propane and all the biological detergents (e.g. CHAPS, zwittergents, etc.) were purchased from CN Biosciences UK, Beeston, Nottinghamshire, U.K. Glycerol was purchased from Amersham Pharmacia Biotech, Little Chalfont, Buckinghamshire, U.K. Stock solutions of substrate or inhibitor were made up to 10 mM in 100% dimethylsulfoxide (DMSO) (Rathburns, Glasgow, U.K.) and diluted as appropriately required. In all cases the DMSO concentration in the assays was maintained at less than 1% (vol./vol.).
Assay protocols were based on literature precedent (Table 4; Barrett, A. J., Rawlings, N. D. and Woessner, J. F., 1998, Handbook of Proteolytic Enzymes, Academic Press, London and references therein) and modified as required to suit local assay protocols. Enzyme was added as required to initiate the reaction and the activity, as judged by the change in fluorescence upon conversion of substrate to product, was monitored over time. All assays were carried out at 25±1° C.
Bovine cathepsin S, human cathepsin L, human cathepsin H and human cathepsin B were obtained from CN Biosciences. Recombinant human cathepsin S, human cathepsin K and human cathepsin X were obtained from Dr. Boris Turk (Josef Stefan Institute, Ljubljana, Slovenia). Unless otherwise stated, all peptidase activity assays were carried out in 10 mM bis-tris-propane (BTP), pH 6.5 containing 1 mM EDTA, 5 mM 2-mercaptoethanol and 1 mM CaCl2. Human cathepsin H activity assays were carried out in 10 mM BTP pH 6.5, 142 mM NaCl2, 1 mM CaCl2, 1 mM EDTA, 1 mM DTT, 0.035 mM Zwittergent 3-16. Human cathepsin K assays were carried out in 100 mM sodium acetate; pH 5.5 containing 20 mM L-cysteine and 1 mM EDTA (Bossard, M. J., et. al., J. Biol. Chem., 21, 12517-12524, 1996). Human cathepsin X assays were carried out in 100 mM sodium acetate; pH 5.5 containing 20 mM L-cysteine; 0.05% (w/v) Brij 35 and 1 mM EDTA (Santamaria, I., et. al., J. Biol. Chem., 273, 16816-16823, 1998; Klemencic, J, et al., Eur. J. Biochem., 267, 5404-5412, 2000). […]

In another assay the target is Wild-type cruzipain (Trypanosoma cruzi, UniProt P25779). Briefly: Trypanosoma cruzi cruzipain peptidase activity assay (Ki). In kind it is biochemical. The settings on record: read-out: Ki, inhibitors of cruzain and cruzipains. An outline of the steps: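 Native cruzipain from T. cruzi Dm28 epimastigotes, 2.5 nM, in 100 mM sodium phosphate pH 6.75 with 1 mM EDTA and 10 mM L-cysteine, 25 °C, DMSO <1%. Rates taken from continuous fluorogenic substrate read; Ki by regression assuming reversible pure-competitive inhibition.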
Sequence of Wild-type cruzipain (P25779 whole entry): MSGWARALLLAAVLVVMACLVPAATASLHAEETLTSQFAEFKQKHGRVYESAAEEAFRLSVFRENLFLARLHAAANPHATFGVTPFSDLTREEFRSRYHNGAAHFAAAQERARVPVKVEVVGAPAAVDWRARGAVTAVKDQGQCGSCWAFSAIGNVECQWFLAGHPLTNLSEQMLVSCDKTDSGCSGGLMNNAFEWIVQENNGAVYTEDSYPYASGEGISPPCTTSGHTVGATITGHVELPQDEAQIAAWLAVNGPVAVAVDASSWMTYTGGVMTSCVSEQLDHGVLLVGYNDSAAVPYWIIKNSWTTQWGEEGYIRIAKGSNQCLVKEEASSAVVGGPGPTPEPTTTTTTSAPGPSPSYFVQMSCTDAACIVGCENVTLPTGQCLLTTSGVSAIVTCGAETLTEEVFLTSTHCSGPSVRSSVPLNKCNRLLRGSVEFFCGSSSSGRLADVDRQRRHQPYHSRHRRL

Where only a bound is given, the exact number is not on record here.

T1 sequence (P07711 114-333): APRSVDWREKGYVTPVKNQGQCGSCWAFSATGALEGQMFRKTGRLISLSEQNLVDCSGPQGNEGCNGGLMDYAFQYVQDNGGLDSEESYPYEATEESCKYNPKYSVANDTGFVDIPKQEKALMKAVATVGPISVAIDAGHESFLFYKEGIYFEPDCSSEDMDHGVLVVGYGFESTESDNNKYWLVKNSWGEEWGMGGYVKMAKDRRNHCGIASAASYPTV

On to `Cc1ccccc1C(=O)N1CC(=O)[C@@H]2[C@H]1CCN2C(=O)[C@H](CC1CCCCC1)NC(=O)c1ccsc1` [Example 291, (3aR,6aS)-Thiophene-3-carboxylic acid {(1S)-1-cyclohexylmethyl-2-[4-(2-methyl-benzoyl)-6-oxo-hexahydro-pyrrolo[3,2-b]pyrrol-1-yl]-2-oxo-ethyl}-amide], for which the Ki on human cathepsin L was less than 5 µM.
Take `O=C(N[C@@H](CC1CCCCC1)C(=O)N1CC[C@@H]2[C@H]1C(=O)CN2C(=O)c1ccccc1)c1ccco1` [Example 288, (3aR,6aS)-Furan-2-carboxylic acid [(1S)-2-(4-benzoyl-6-oxo-hexahydro-pyrrolo[3,2-b]pyrrole-1-yl)-1-cyclohexylmethyl-2-oxo-ethyl]-amide]: the Ki at Wild-type cruzipain and at human cathepsin L was less than 5 µM each time.
Take `O=C1CN(C(=O)c2ccccc2)[C@@H]2CCN(C(=O)[C@H](CC3CCCCC3)NC(=O)N3CCOCC3)[C@H]12` [Example 280, (3aR,6aS)-Morpholine-4-carboxylic acid [(1S)-2-(4-benzoyl-6-oxo-hexahydro-pyrrolo[3,2-b]pyrrole-1-yl)-1-cyclohexylmethyl-2-oxo-ethyl]-amide]: the Ki at human cathepsin L is less than 5 µM.
On to `CN(C)c1ccc(C(=O)N[C@@H](Cc2ccc(O)cc2)C(=O)N2CC[C@@H]3[C@H]2C(=O)CN3C(=O)c2ccccc2S(C)(=O)=O)cc1` [Example 357, (3aR,6aS)-4-Dimethylamino-N-{(1S)-1-(4-hydroxy-benzyl)-2-[4-(2-methanesulfonyl-benzoyl)-6-oxo-hexahydro-pyrrolo[3,2-b]pyrrole-1-yl]-2-oxo-ethyl}-benzamide], for which the Ki at human cathepsin L is less than 5 µM.
Turning to `O=C(N[C@@H](CC1CCCCC1)C(=O)N1CC[C@@H]2[C@H]1C(=O)CN2C(=O)c1ccccc1)c1ccoc1` [Example 289, (3aR,6aS)-Furan-3-carboxylic acid [(1S)-2-(4-benzoyl-6-oxo-hexahydro-pyrrolo[3,2-b]pyrrole-1-yl)-1-cyclohexylmethyl-2-oxo-ethyl]-amide], the Ki at human cathepsin L was less than 5 µM.
Take `O=C(N[C@@H](CSCc1ccccc1)C(=O)N1CC[C@@H]2[C@H]1C(=O)CN2C(=O)c1ccccc1)c1ccccc1` [Example 285, (3aR,6aS)-N-[(1R)-2-(4-Benzoyl-6-oxo-hexahydro-pyrrolo[3,2-b]pyrrol-1-yl)-1-benzylsulfanylmethyl-2-oxo-ethyl]-benzamide]: at human cathepsin L, the Ki is less than 5 µM.
Still for that read-out and setting: the same measure for `O=C(N[C@@H](CSCc1ccccc1)C(=O)N1CC[C@@H]2[C@H]1C(=O)CN2C(=O)c1ccccc1)c1cccs1` [Example 282, (3aR,6aS)-Thiophene-2-carboxylic acid [(1R)-2-(4-benzoyl-6-oxo-hexahydro-pyrrolo[3,2-b]pyrrole-1-yl)-1-benzylsulfanylmethyl-2-oxo-ethyl]-amide]: less than 5 µM; for `CN(C)c1ccc(C(=O)N[C@@H](Cc2ccc(O)cc2)C(=O)N2CC[C@@H]3[C@H]2C(=O)CN3C(=O)c2ccccc2)cc1` [Example 356, (3aR,6aS)-N-[(1S)-2-(4-Benzoyl-6-oxo-hexahydro-pyrrolo[3,2-b]pyrrol-1-yl)-1-(4-hydroxy-benzyl)-2-oxo-ethyl)-4-dimethylamino-benzamide]: less than 5 µM; for `CN(C)c1ccc(C(=O)N[C@@H](Cc2ccc(O)cc2)C(=O)N2CC[C@@H]3[C@H]2C(=O)CN3C(=O)c2cccs2)cc1` [Example 359, (3aR,6aS)-4-Dimethylamino-N-{(1S)-1-(4-hydroxy-benzyl)-2-oxo-2-[6-oxo-4-(thiophene-2-carbonyl)-hexahydro-pyrrolo[3,2-b]pyrrol-1-yl]-ethyl}-benzamide]: less than 5 µM.
As to `O=C(N[C@@H](CC1CCCCC1)C(=O)N1CC[C@@H]2[C@H]1C(=O)CN2C(=O)c1ccccc1)c1cccs1` [Example 287, (3aR,6aS)-Thiophene-2-carboxylic acid [(1S)-2-(4-benzoyl-6-oxo-hexahydro-pyrrolo[3,2-b]pyrrole-1-yl)-1-cyclohexylmethyl-2-oxo-ethyl]-amide], the Ki on Wild-type cruzipain and at human cathepsin L was less than 5 µM each time.
For the molecule `O=C(N[C@@H](CC1CCCCC1)C(=O)N1CC[C@@H]2[C@H]1C(=O)CN2C(=O)c1ccccc1)C(c1ccccc1)c1ccccc1` [Example 270, (3aR,6aS)-N-[(1S)-2-(4-Benzoyl-6-oxo-hexahydro-pyrrolo[3,2-b]pyrrol-1-yl)-1-cyclohexylmethyl-2-oxo-ethyl]-2,2-diphenyl-acetamide], on human cathepsin L, the Ki was less than 5 µM.
Still for that read-out and setting: the same measure for `Cc1ccc(C(=O)N2CC(=O)[C@@H]3[C@H]2CCN3C(=O)[C@H](CC2CCCCC2)NC(=O)c2ccsc2)cc1` [Example 293, (3aR,6aS)-Thiophene-3-carboxylic acid {(1S)-1-cyclohexylmethyl-2-[4-(4-methyl-benzoyl)-6-oxo-hexahydro-pyrrolo[3,2-b]pyrrol-1-yl]-2-oxo-ethyl}-amide]: less than 5 µM.
As for `CC(C)C[C@H](NC(=O)c1ccc2ccccc2n1)C(=O)N1CC[C@@H]2[C@H]1C(=O)CN2C(=O)c1cccnc1` [Example 18, (3aR,6aS)-Quinoline-2-carboxylic acid {(1S)-3-methyl-1-[6-oxo-4-(pyridine-3-carbonyl)-hexahydro-pyrrolo[3,2-b]pyrrole-1-carbonyl]-butyl}-amide], the Ki on Wild-type cruzipain and at human cathepsin L was less than 5 µM throughout.
As to `CN(C)c1ccc(C(=O)N[C@@H](Cc2ccc(O)cc2)C(=O)N2CC[C@@H]3[C@H]2C(=O)CN3C(=O)c2cccc(S(C)(=O)=O)c2)cc1` [Example 358, (3aR,6aS)-4-Dimethylamino-N-{(1S)-1-(4-hydroxy-benzyl)-2-[4-(3-methanesulfonyl-benzoyl)-6-oxo-hexahydro-pyrrolo[3,2-b]pyrrol-1-yl]-2-oxo-ethyl}-benzamide], the Ki at human cathepsin L was less than 5 µM.
Same read-out and setting: the same measure for `Nc1ccc(C(=O)N2CC(=O)[C@@H]3[C@H]2CCN3C(=O)[C@H](CSCc2ccccc2)NC(=O)c2ccsc2)cc1` [Example 268, (3aR,6aS)-Thiophene-3-carboxylic acid {(1R)-2-(4-(4-amino-benzoyl)-6-oxo-hexahydro-pyrrolo[3,2-b]pyrrol-1-yl]-1-benzylsulfanylmethyl-2-oxo-ethyl}-amide]: less than 5 µM; for `O=C(N[C@@H](CSCc1ccccc1)C(=O)N1CC[C@@H]2[C@H]1C(=O)CN2C(=O)c1ccsc1)c1ccsc1` [Example 272, (3aR,6aS)-Thiophene-3-carboxylic acid {(1R)-1-benzylsulfanylmethyl-2-oxo-2-[6-oxo-4-(thiophene-3-carbonyl)-hexahydro-pyrrolo[3,2-b]pyrrol-1-yl]-ethyl}-amide]: less than 5 µM.
In the case of `CC(C)C[C@H](NC(=O)c1ccc(N(C)C)cc1)C(=O)N1CC[C@@H]2[C@H]1C(=O)CN2C(=O)c1ccc(Cl)o1` [Example 244, (3aR,6aS)-N-{(1S)-1-[4-(5-Chloro-furan-2-carbonyl)-6-oxo-hexahydro-pyrrolo[3,2-b]pyrrole-1-carbonyl]-3-methyl-butyl}-4-dimethylamino-benzamide], the inhibitory constant (Ki) at Wild-type cruzipain and at human cathepsin L was less than 5 µM throughout.

One may read the Ki as a measure of affinity in units of concentration, obtained from inhibition or displacement.

The values above are taken from patent US20060100431A1, “Biologically active compounds” (Amura Therapeutics Limited, priority 2002, published 2006).
